Each structure is given as a SMILES string.

The subject of the test is estradiol-induced increase in uterine weight. Kind of test: Anti-estrogenic activity (oral administration) in ovariectomized mice administered with 17β-estradiol. Conditions: 10 mg/kg p.o. once a day for 3 days, suspended in 5% arabic gum, ovariectomized ICR mice given 17β-estradiol-benzoate 0.1 μg/mouse s.c. for 3 days, uteri weighed 24 hours after last administration. Type of test: in vivo. How it is done: Test compounds were assayed for their oral anti-estrogenic activity in the following manner. In this experiment, the compounds prepared in Examples mentioned above were used as test compounds. As control compounds, the following three were used: a compound described in Example 7 of WO98/25916; ZM; and a compound corresponding to general formula (1) of the present invention, provided that R2 was a C2 perfluoroalkyl group (perfluoroethyl), i.e., 10-[(3RS,4RS)-7-hydroxy-3-(4-hydroxyphenyl)-3-methylthiochroman-4-yl]-2-(4,4,5,5,5-pentafluoropentyl)decanoic acid, which had been synthesized according to Reaction Schemes 1 to 7 mentioned above.
In this experiment, each of the test and control compounds was suspended in 5% arabic gum solution and orally administered for 3 days on a once-a-day basis. After 24 hours from the last administration, the test animals were sacrificed and the uteri were removed and weighed.
Regarding `C[C@@]1(c2ccc(O)cc2)CSc2cc(O)ccc2[C@@H]1CCCCCCCCC(CCCC(F)(F)C(F)(F)F)C(=O)O` (mixture of isomers) [10-[(3RS,4RS)-7-hydroxy-3-(4-hydroxyphenyl)-3-methylthiochroman-4-yl]-2-(4,4,5,5,5-pentafluoropentyl)decanoic acid, reference compound], the inhibition in vivo at 10 mg/kg was determined as 75%.
`C[C@@]1(c2ccc(O)cc2)CSc2cc(O)ccc2[C@@H]1CCCCCCCCC(CCC(F)(F)C(F)(F)C(F)(F)C(F)(F)F)C(=O)O` (mixture of isomers) [Example 8, 10-[(3RS,4RS)-7-hydroxy-3-(4-hydroxyphenyl)-3-methylthiochroman-4-yl]-2-(3,3,4,4,5,5,6,6,6-nonafluorohexyl)decanoic acid] came in with an inhibition in vivo at 10 mg/kg of 93%.
For `C[C@@]1(c2ccc(O)cc2)CSc2cc(O)ccc2[C@@H]1CCCCCCCCC(CCCC(F)(F)C(F)(F)C(F)(F)C(F)(F)F)C(=O)O` (mixture of isomers) [Example 9, 10-[(3RS,4RS)-7-hydroxy-3-(4-hydroxyphenyl)-3-methylthiochroman-4-yl]-2-(4,4,5,5,6,6,7,7,7-nonafluoroheptyl)decanoic acid] the value was 93%; for `C[C@@]1(c2ccc(O)cc2)CSc2cc(O)ccc2[C@@H]1CCCCCCCCCC(CCC(F)(F)C(F)(F)C(F)(F)C(F)(F)F)C(=O)O` (mixture of isomers) [Example 11, 11-[(3RS,4RS)-7-hydroxy-3-(4-hydroxyphenyl)-3-methylthiochroman-4-yl]-2-(3,3,4,4,5,5,6,6,6-nonafluorohexyl)undecanoic acid], 85%.
On to `C[C@@]1(c2ccc(O)cc2)CSc2cc(O)ccc2[C@@H]1CCCCCCCCCC(CCCC(F)(F)C(F)(F)C(F)(F)C(F)(F)F)C(=O)O` (mixture of isomers) [Example 12, 11-[(3RS,4RS)-7-hydroxy-3-(4-hydroxyphenyl)-3-methylthiochroman-4-yl]-2-(4,4,5,5,6,6,7,7,7-nonafluoroheptyl)undecanoic acid], for which the inhibition in vivo at 10 mg/kg was 86%.
For `C[C@@]1(c2ccc(O)cc2)COc2cc(O)ccc2[C@@H]1CCCCCCCCC(CCC(F)(F)C(F)(F)C(F)(F)C(F)(F)F)C(=O)O` (mixture of isomers) [Example 13, 10-[(3RS,4RS)-7-hydroxy-3-(4-hydroxyphenyl)-3-methylchroman-4-yl]-2-(3,3,4,4,5,5,6,6,6-nonafluorohexyl)decanoic acid], the inhibition in vivo at 10 mg/kg was 84%.
For the molecule `C[C@@]1(c2ccc(O)cc2)COc2cc(O)ccc2[C@@H]1CCCCCCCCCC(CCC(F)(F)C(F)(F)C(F)(F)C(F)(F)F)C(=O)O` (mixture of isomers) [Example 14, 11-[(3RS,4RS)-7-hydroxy-3-(4-hydroxyphenyl)-3-methylchroman-4-yl]-2-(3,3,4,4,5,5,6,6,6-nonafluorohexyl)undecanoic acid], the inhibition in vivo at 10 mg/kg came out at 88%.
Consider `C[C@@]1(c2ccc(O)cc2)COc2cc(O)ccc2[C@@H]1CCCCCCCCC(CCCC(F)(F)C(F)(F)C(F)(F)C(F)(F)F)C(=O)O` (mixture of isomers) [Example 15, 10-[(3RS,4RS)-7-hydroxy-3-(4-hydroxyphenyl)-3-methylchroman-4-yl]-2-(4,4,5,5,6,6,7,7,7-nonafluoroheptyl)decanoic acid], for which the inhibition in vivo at 10 mg/kg is 92%.
On to `C[C@@]1(c2ccc(O)cc2)COc2cc(O)ccc2[C@@H]1CCCCCCCCCC(CCCC(F)(F)C(F)(F)C(F)(F)C(F)(F)F)C(=O)O` (mixture of isomers) [Example 16, 11-[(3RS,4RS)-7-hydroxy-3-(4-hydroxyphenyl)-3-methylchroman-4-yl]-2-(4,4,5,5,6,6,7,7,7-nonafluoroheptyl)undecanoic acid], for which at 10 mg/kg the inhibition in vivo was 91%.
For `C[C@@]1(c2ccc(O)cc2)CSc2cc(O)ccc2[C@@H]1CCCCCCCCC(CCC(F)(F)C(F)(F)C(F)(F)C(F)(F)F)C(=O)O` (single isomer, unassigned) [Example 21, Peak 1] the value was 89%; for `CC1(c2ccc(O)cc2)COc2cc(O)ccc2C1CCCCCCCCCC(CCC(F)(F)C(F)(F)C(F)(F)C(F)(F)F)C(=O)O` (single isomer, unassigned) [Example 24, Peak 1, 11-[7-hydroxy-3-(4-hydroxyphenyl)-3-methylchroman-4-yl]-2-(3,3,4,4,5,5,6,6,6-nonafluorohexyl)undecanoic acid], 85%.

For orientation: inhibition in vivo means the drop in the measured response relative to a control, in per cent. A high value points to strong suppression.

(Values after US6552069B1, “3-methyl-chroman and -thiochroman derivatives” (Chugai Seiyaku Kabushiki Kaisha, priority 1999, dated 2003).)
